{"source": "patent US20240424053A1", "about": "“METHODS AND COMPOSITIONS FOR PROVIDING MYOCARDIAL PROTECTION AND TREATING MYOCARDIAL STRESS AND FIBROSIS” (Tufts Medical Center, Inc., priority 2021, published 2024)", "key": {"PAR1 [1]": {"test_system": "PAR1", "conditions": "cited from earlier work"}, "PAR1 [2]": {"molecular_target": "T1, PAR1 (Mus musculus, UniProt P30558)", "T1 construct": "endogenous in cells; host or cells: male C57BL/6N mice, in vivo", "T1 sequence (P30558 22-430)": "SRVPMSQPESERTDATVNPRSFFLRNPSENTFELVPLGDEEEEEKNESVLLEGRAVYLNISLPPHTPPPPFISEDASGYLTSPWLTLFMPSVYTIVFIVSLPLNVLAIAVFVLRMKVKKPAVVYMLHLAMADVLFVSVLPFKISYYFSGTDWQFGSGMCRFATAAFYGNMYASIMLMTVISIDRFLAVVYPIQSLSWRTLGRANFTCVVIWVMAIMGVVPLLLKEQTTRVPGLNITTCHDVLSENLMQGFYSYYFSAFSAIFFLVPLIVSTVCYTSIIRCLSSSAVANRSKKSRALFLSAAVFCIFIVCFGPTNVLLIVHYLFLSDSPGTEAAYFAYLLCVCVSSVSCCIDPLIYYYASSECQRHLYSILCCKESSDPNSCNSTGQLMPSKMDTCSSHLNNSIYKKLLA", "test": "thoracic aortic constriction (TAC) LV pressure overload model of HFrEF in mice", "type": "in vivo", "protocol": "Male C57BL/6N mice were treated daily for 7 weeks with vehicle or 10 mg/kg PZ-128 sc following 25G transaortic constriction (TAC) or sham surgery (Richards et al., Scientific Reports 9(1):5844, 2019) (n=5-7). (FIG. 4A) Photomicrographs of interstitial fibrosis in cardiac sections stained with sirius red from Sham and TAC animals treated with Veh or PZ-128. (FIG. 4B) Interstitial collagen area from animals in A was quantified along with (FIG. 4C) Col1a1 expression by Q-PCR. (FIGS. 4D-4E) LV fractional shortening and ejection fraction were quantified by ECHO. (FIG. 4F) The outline of cardiomyocytes was identified by wheat germ agglutinin (WGA-green) staining with (FIG. 4G) mean myocyte area digitally quantified. (FIG. 4H) Mean weight (mg) of LV normalized to tibia length (mm).\n(FIG. 5A) Photomicrographs of CD11 b+monocytes/macrophages and CD4+ T cells in Sham vs TAC in mice treated with vehicle or PZ-128 as in FIGS. 4A-4H, with CD11 b staining area quantified in FIG. 5B and T cells quantified in FIG. 5C.\nTAC vs Sham mice were treated for 7 weeks with vehicle or PZ-128, and cardiac fibrosis and LV hypertrophy indices measured. […] This may indicate that unlike upstream thrombin (Dong et al., Thromb. Res. 159:58-64, 2017) or factor Xa (Yurista et al., Cardiovasc. Drugs Ther. 35(5):953-963, 2021) blockade, inhibition of PAR1 may effectively suppress cardiac hypertrophy by reducing the total ventricular mass, potentially by reducing MMP1-PAR1 driven fibrosis/remodeling and cardiac fibroblast expansion.\nTo obtain additional data to support PAR1 as a potentially important contributor to HF pathogenesis via inflammation, we investigated the effect of PZ-128 on monocyte/macrophage and CD4+ T cells in the 7-week TAC LV pressure overload model. As shown in FIGS. 5A-5B, there was a marked amount of CD11 b+monocytes/macrophages in the cardiac tissue from the TAC animals which was suppressed by nearly 90% by PZ-128 treatment."}, "PAR1 [3]": {"molecular_target": "T2, PAR1 (Homo sapiens, UniProt P25116)", "T2 construct": "delivered intravenously in 100 patients with coronary artery disease (CAD) and acute coronary syndrome (ACS) undergoing cardiac catheterization; endogenous in cells; host or cells: patients of the TRIP-PCI trial (platelets ex vivo; whole body in vivo)", "T2 sequence (P25116 22-425)": "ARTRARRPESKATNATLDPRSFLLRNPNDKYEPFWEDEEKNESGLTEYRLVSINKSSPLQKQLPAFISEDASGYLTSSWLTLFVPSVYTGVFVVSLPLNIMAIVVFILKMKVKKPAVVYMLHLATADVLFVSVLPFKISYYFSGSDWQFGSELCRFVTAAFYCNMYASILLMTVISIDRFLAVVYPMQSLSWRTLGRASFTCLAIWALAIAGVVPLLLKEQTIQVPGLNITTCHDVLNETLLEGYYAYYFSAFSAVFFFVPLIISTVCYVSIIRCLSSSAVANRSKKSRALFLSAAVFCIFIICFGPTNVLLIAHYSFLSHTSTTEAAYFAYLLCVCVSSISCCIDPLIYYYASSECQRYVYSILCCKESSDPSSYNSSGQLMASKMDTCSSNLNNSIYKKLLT", "conditions": "cited from earlier work"}, "PAR1 [4]": {"molecular_target": "T2, PAR1", "conditions": "subjects with coronary artery disease; cited from earlier work"}, "[5]": {"conditions": "7 weeks, Q-PCR relative to GAPDH mRNA, preliminary"}}, "note": "Like-named read-outs stand apart in the source and are kept apart here. Where a SMILES comes first, the peptide text is derived from it. The star is where a group is joined. Palmitoyl = CCCCCCCCCCCCCCCC(=O)*", "data": [{"molecule": "CCCCCCCCCCCCCCCC(=O)N[C@@H](CCCCN)C(=O)N[C@@H](CCCCN)C(=O)N[C@@H](CO)C(=O)N[C@@H](CCCNC(=N)N)C(=O)N[C@@H](C)C(=O)N[C@@H](CC(C)C)C(=O)N[C@@H](Cc1ccccc1)C(N)=O", "note": "[PZ-128, Palmitate-KKSRALF-NH2] (Palmitoyl-KKSRALF-NH2)", "values": [{"measurement": "mode of action at PAR1", "setting": "PAR1 [1]", "value": "full PAR1 antagonists"}, {"measurement": "LV mass (adjusted for tibia length)", "setting": "PAR1 [2]; 10 mg/kg sc daily for 7 weeks", "value": "highly significant protective effect"}, {"measurement": "TAC-induced loss in ejection fraction by ECHO", "setting": "PAR1 [2]; 10 mg/kg sc daily for 7 weeks", "value": "significant protective effects"}, {"measurement": "TAC-induced loss in fractional shortening by ECHO", "setting": "PAR1 [2]; 10 mg/kg sc daily for 7 weeks", "value": "significant protective effects"}, {"measurement": "interstitial collagen (cardiac fibrosis) relative to vehicle", "setting": "PAR1 [2]; 10 mg/kg sc daily for 7 weeks", "value": "dramatic anti-fibrotic effects"}, {"measurement": "suppression of the increase in mean myocyte cross-sectional area", "setting": "PAR1 [2]; 10 mg/kg sc daily for 7 weeks", "value": "no effect"}, {"measurement": "Col1A1 expression relative to vehicle", "setting": "PAR1 [2]; 10 mg/kg sc daily for 7 weeks, Q-PCR", "value": "dramatic anti-fibrotic effects"}, {"measurement": "suppression of CD11b+ monocytes/macrophages in cardiac tissue", "setting": "PAR1 [2]; 7 weeks", "value": "~90", "unit": "%"}, {"measurement": "CTGF gene expression", "setting": "PAR1 [2]; [5]", "value": "reduces expression"}, {"measurement": "Cyr61 gene expression", "setting": "PAR1 [2]; [5]", "value": "reduces expression"}, {"measurement": "IL-6 gene expression", "setting": "PAR1 [2]; [5]", "value": "reduces expression"}, {"measurement": "TGFβ gene expression", "setting": "PAR1 [2]; [5]", "value": "reduces expression"}, {"measurement": "TNFα gene expression", "setting": "PAR1 [2]; [5]", "value": "reduces expression"}, {"measurement": "T cell infiltration (CD4+)", "setting": "PAR1 [2]; 7 weeks, vehicle mice significant increases", "value": "non-significant increases"}, {"measurement": "overall safety and tolerability", "setting": "PAR1 [3]; 0.3 and 0.5 mg/kg, single 2-h intravenous infusion, 100 patients", "value": "safe and well-tolerated"}, {"measurement": "hazard ratio of a MACE/myonecrosis event versus placebo", "setting": "PAR1 [3]; PZ-128 treated groups, nonsignificant decrease", "value": 0.81}, {"measurement": "major adverse coronary events (MACE)", "setting": "PAR1 [3]; at 30 days, combined PZ-128 dose groups (placebo 6%, P=0.13)", "value": 0, "unit": "%"}, {"measurement": "major adverse coronary events (MACE)", "setting": "PAR1 [3]; at 90 days, combined PZ-128 dose groups (placebo 6%, P=0.29)", "value": 2, "unit": "%"}, {"measurement": "MACE and myocardial injury within 30 days", "setting": "PAR1 [3]; subgroup with elevated baseline cardiac troponin I (placebo 83%, P=0.02)", "value": 31, "unit": "%"}, {"measurement": "primary safety endpoint: bleeding vs vehicle", "setting": "PAR1 [3]; up to 30 days posttreatment", "value": "not significantly different"}, {"measurement": "platelet activation and hemostasis in phase 1", "setting": "PAR1 [4]", "value": "suppresses platelet activation without effects on hemostasis"}]}]}
